Molecular target: Ba/F3 V617F cells (Homo sapiens, UniProt O60674, V617F, cells depend on it)
Experiment: Proliferation assay (Cell Titer-Glo, 72 h) utilizing Ba/F3 V617F cells
Format: cell-based, mouse
Details: Ba/F3 V617F cells, proliferation, level of activity given as class symbol, read-out: IC50 (the source's name)
How it was run: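 Readout is CellTiter-Glo luminescence after 72 h at 37 °C, giving IC50. Cells: Ba/F3 V617F, 1×10^5 cells/mL in RPMI with 10% FBS, treated in duplicate with 3-fold dilution series made from 5 mM DMSO stock, 1:250 in 5% FBS medium, added at 2×.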

Ba/F3 V617F cells, sequence (O60674 whole entry V617F): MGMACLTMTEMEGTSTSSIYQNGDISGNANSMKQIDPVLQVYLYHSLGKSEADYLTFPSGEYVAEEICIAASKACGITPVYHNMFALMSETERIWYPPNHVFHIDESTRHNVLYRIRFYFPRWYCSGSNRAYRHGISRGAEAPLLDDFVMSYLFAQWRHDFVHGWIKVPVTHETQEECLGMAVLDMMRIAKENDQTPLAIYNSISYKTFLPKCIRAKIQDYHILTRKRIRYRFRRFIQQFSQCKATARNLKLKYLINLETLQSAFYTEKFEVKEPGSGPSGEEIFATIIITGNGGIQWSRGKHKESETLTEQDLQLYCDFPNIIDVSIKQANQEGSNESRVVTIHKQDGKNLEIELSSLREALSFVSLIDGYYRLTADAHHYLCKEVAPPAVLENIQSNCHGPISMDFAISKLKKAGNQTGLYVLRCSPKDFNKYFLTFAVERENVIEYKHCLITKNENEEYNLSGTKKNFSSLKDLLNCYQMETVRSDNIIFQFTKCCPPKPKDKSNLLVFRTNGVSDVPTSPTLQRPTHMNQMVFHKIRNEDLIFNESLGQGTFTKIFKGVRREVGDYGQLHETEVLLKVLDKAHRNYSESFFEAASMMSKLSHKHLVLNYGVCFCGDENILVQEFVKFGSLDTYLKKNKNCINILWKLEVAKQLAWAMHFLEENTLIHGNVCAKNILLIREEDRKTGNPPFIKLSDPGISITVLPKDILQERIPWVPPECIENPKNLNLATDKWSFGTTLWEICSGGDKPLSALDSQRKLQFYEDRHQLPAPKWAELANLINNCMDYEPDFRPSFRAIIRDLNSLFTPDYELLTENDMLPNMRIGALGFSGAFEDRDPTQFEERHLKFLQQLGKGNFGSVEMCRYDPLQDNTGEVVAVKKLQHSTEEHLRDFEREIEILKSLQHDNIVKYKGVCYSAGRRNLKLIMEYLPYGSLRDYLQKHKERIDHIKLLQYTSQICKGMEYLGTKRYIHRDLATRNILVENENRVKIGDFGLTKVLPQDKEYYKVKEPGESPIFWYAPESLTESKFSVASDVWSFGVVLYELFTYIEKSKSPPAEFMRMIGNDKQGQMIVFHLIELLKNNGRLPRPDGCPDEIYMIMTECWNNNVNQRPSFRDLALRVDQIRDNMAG

`Cc1cc(Nc2nccc(-c3ccc(N4C[C@@H](C)O[C@@H](C)C4)nc3)n2)ccc1N1C[C@@H]2C[C@H]1CN2C` [compound 187, 4-(6-(cis-2,6-dimethylmorpholin-4-yl)pyridin-3-yl)-N-(3-methyl-4-((1S,4S)-5-methyl-2,5-diazabicyclo[2.2.1]heptan-2-yl)phenyl)pyrimidin-2-amine] and `Cc1cc(Nc2nccc(-c3ccc(N4CCOC(CN(C)C)C4)nc3)n2)ccc1N1C[C@@H]2C[C@H]1CN2C` (stereo partly drawn) [compound 189, 4-(6-(2-(dimethylamino)methylmorpholin-4-yl)pyridin-3-yl)-N-(3-methyl-4-((1S,4S)-5-methyl-2,5-diazabicyclo[2.2.1]heptan-2-yl)phenyl)pyrimidin-2-amine] cannot be ordered by GI50: less than 1000 nM for the first, less than 1000 nM for the second.

First: CCCNc1ccc(-c2ccnc(Nc3ccc(N4C[C@@H]5C[C@H]4CN5C)c(C)c3)n2)cn1 [compound 188, 4-(6-(propylamino)pyridin-3-yl)-N-(3-methyl-4-((1S,4S)-5-methyl-2,5-diazabicyclo[2.2.1]heptan-2-yl)phenyl)pyrimidin-2-amine]
Second: Cc1cc(Nc2nccc(-c3ccc(NCCCN(C)C)nc3)n2)ccc1N1C[C@@H]2C[C@H]1CN2C [compound 198, 4-(6-(3-dimethylamino)propylaminopyridin-3-yl)-N-(3-methyl-4-((1S,4S)-5-methyl-2,5-diazabicyclo[2.2.1]heptan-2-yl)phenyl)pyrimidin-2-amine]
The GI50 of the first is lower: less than 1000 nM for the first, 1000 to 10000 nM for the second.

`Cc1cc(Nc2nccc(-c3ccc(N4CCCCC4)nc3)n2)ccc1N1C[C@@H]2C[C@H]1CN2C` [compound 190, 4-(6-(piperidin-1-yl)pyridin-3-yl)-N-(3-methyl-4-((1S,4S)-5-methyl-2,5-diazabicyclo[2.2.1]heptan-2-yl)phenyl)pyrimidin-2-amine] and `Cc1cc(Nc2nccc(-c3ccc(N4CCCOCC4)nc3)n2)ccc1N1C[C@@H]2C[C@H]1CN2C` [compound 206, 4-(6-(1,4-oxazepan-4-yl)pyridin-3-yl)-N-(3-methyl-4-((1S,4S)-5-methyl-2,5-diazabicyclo[2.2.1]heptan-2-yl)phenyl)pyrimidin-2-amine] cannot be ordered by GI50: less than 1000 nM for the first, less than 1000 nM for the second.

`Cc1cc(Nc2nccc(-c3ccc(N4CCCC(C(N)=O)C4)nc3)n2)ccc1N1C[C@@H]2C[C@H]1CN2C` (stereo partly drawn) [compound 191, 4-(6-(3-(aminocarbonyl)piperidin-1-yl)pyridin-3-yl)-N-(3-methyl-4-((1S,4S)-5-methyl-2,5-diazabicyclo[2.2.1]heptan-2-yl)phenyl)pyrimidin-2-amine] and `Cc1cc(Nc2nccc(-c3ccc(N4CCOCC4)nc3)n2)ccc1N1C[C@@H]2C[C@H]1CN2C(=N)N` [compound 199, 4-(6-(morpholin-4-yl)pyridin-3-yl)-N-(3-methyl-4-((1S,4S)-5-amidino-2,5-diazabicyclo[2.2.1]heptan-2-yl)phenyl)pyrimidin-2-amine] fall in the same range of GI50: 1000 to 10000 nM for the first, 1000 to 10000 nM for the second.

`Cc1cc(Nc2nccc(-c3ccc(N4CCOCC4)nc3)n2)ccc1N1C[C@@H]2C[C@H]1CN2S(C)(=O)=O` [compound 192, 4-(6-(morpholin-4-yl)pyridin-3-yl)-N-(3-methyl-4-((1S,4S)-5-methylsulfonyl-2,5-diazabicyclo[2.2.1]heptan-2-yl)phenyl)pyrimidin-2-amine] and `CCC(=O)N1C[C@@H]2C[C@H]1CN2c1ccc(Nc2nccc(-c3ccc(N4CCOCC4)nc3)n2)cc1C` [compound 196, 4-(6-(morpholin-4-yl)pyridin-3-yl)-N-(3-methyl-4-((1S,4S)-5-ethylcarbonyl-2,5-diazabicyclo[2.2.1]heptan-2-yl)phenyl)pyrimidin-2-amine] cannot be ordered by GI50: less than 1000 nM for the first, less than 1000 nM for the second.

`Cc1cc(Nc2nccc(-c3cnc4c(c3)OCCN4C)n2)ccc1N1C[C@@H]2C[C@H]1CN2S(C)(=O)=O` [compound 193, 4-(4-methyl-3,4-dihydro-2H-pyrido[3,2-b][1,4]oxazin-7-yl)-N-(3-methyl-4-((1S,4S)-5-methylsulfonyl-2,5-diazabicyclo[2.2.1]heptan-2-yl)phenyl)pyrimidin-2-amine] and `Cc1cc(Nc2nccc(-c3cnc4c(c3)OCCN4C)n2)ccc1N1C[C@@H]2C[C@H]1CO2` [compound 195, 4-(4-methyl-3,4-dihydro-2H-pyrido[3,2-b][1,4]oxazin-7-yl)-N-(3-methyl-4-((1S,4S)-5-oxa-2-azabicyclo[2.2.1]heptan-2-yl)phenyl)pyrimidin-2-amine] cannot be ordered by GI50: less than 1000 nM for the first, less than 1000 nM for the second.

`Cc1cc(Nc2nccc(-c3ccc(N4CCOCC4)nc3)n2)ccc1N1C[C@@H]2C[C@H]1CO2` [compound 194, 4-(6-(morpholin-4-yl)pyridin-3-yl)-N-(3-methyl-4-((1S,4S)-5-oxa-2-azabicyclo[2.2.1]heptan-2-yl)phenyl)pyrimidin-2-amine] and `Cc1cc(Nc2nccc(-c3ccc(N4CCCOCC4)nc3)n2)ccc1N1C[C@@H]2C[C@H]1CO2` [compound 204, 4-(6-(1,4-oxazepan-4-yl)pyridin-3-yl)-N-(3-methyl-4-((1S,4S)-5-oxa-2-azabicyclo[2.2.1]heptan-2-yl)phenyl)pyrimidin-2-amine] cannot be ordered by GI50: less than 1000 nM for the first, less than 1000 nM for the second.

First: CCC(=O)N1C[C@@H]2C[C@H]1CN2c1ccc(Nc2nccc(-c3ccc(NCCN4CCOCC4)nc3)n2)cc1C [compound 197, 4-(6-(2-(morpholin-4-yl)ethyl)aminopyridin-3-yl)-N-(3-methyl-4-((1S,4S)-5-ethylcarbonyl-2,5-diazabicyclo[2.2.1]heptan-2-yl)phenyl)pyrimidin-2-amine]
Second: Cc1cc(Nc2nccc(-c3ccc(N4CCOCC4)nc3)n2)ccc1N1C[C@@H]2C[C@H]1CN2CC(C)C [compound 205, 4-(6-(morpholin-4-yl)pyridin-3-yl)-N-(3-methyl-4-((1S,4S)-5-isobutyl-2,5-diazabicyclo[2.2.1]heptan-2-yl)phenyl)pyrimidin-2-amine]
The GI50 of the first is higher: 1000 to 10000 nM for the first, less than 1000 nM for the second.

`CCOCCCNc1ccc(-c2ccnc(Nc3ccc(N4C[C@@H]5C[C@H]4CO5)c(C)c3)n2)cn1` [compound 200, 4-(6-(3-ethoxypropyl)aminopyridin-3-yl)-N-(3-methyl-4-((1S,4S)-5-oxa-2-azabicyclo[2.2.1]heptan-2-yl)phenyl)pyrimidin-2-amine] and `CCCNc1ccc(-c2ccnc(Nc3ccc(N4C[C@@H]5C[C@H]4CO5)c(C)c3)n2)cn1` [compound 202, 4-(6-(propylamino)pyridin-3-yl)-N-(3-methyl-4-((1S,4S)-5-oxa-2-azabicyclo[2.2.1]heptan-2-yl)phenyl)pyrimidin-2-amine] cannot be ordered by GI50: less than 1000 nM for the first, less than 1000 nM for the second.

`Cc1cc(Nc2nccc(-c3ccc(NCCCN(C)C)nc3)n2)ccc1N1C[C@@H]2C[C@H]1CO2` [compound 203, 4-(6-(3-dimethylamino)propylaminopyridin-3-yl)-N-(3-methyl-4-((1S,4S)-5-oxa-2-azabicyclo[2.2.1]heptan-2-yl)phenyl)pyrimidin-2-amine] and `Cc1cc(Nc2nccc(-c3cnc4c(c3)OCC(=O)N4)n2)ccc1N1C[C@@H]2C[C@H]1CN2C` [compound 209, 4-(3-oxo-3,4-dihydro-2H-pyrido[3,2-b][1,4]oxazin-7-yl)-N-(3-methyl-4-((1S,4S)-5-methyl-2,5-diazabicyclo[2.2.1]heptan-2-yl)phenyl)pyrimidin-2-amine] cannot be ordered by GI50: less than 1000 nM for the first, less than 1000 nM for the second.

Compared with `Cc1cc(Nc2nccc(-c3cnc4c(c3)OC(C)(C)C(=O)N4)n2)ccc1N1CC2(C)CN(C)CC(C)(C1)C2` [compound 207, 4-(2,2-dimethyl-3-oxo-3,4-dihydro-2H-pyrido[3,2-b][1,4]oxazin-7-yl)-N-(3-methyl-4-(1,5,7-trimethyl-3,7-diazabicyclo[3.3.1]nonan-3-yl)phenyl)pyrimidin-2-amine], `CN1CC2(C)CN(c3ccc(Nc4nccc(-c5cnc6c(c5)OC(C)(C)C(=O)N6)n4)cc3F)CC(C)(C1)C2` [compound 208, 4-(2,2-dimethyl-3-oxo-3,4-dihydro-2H-pyrido[3,2-b][1,4]oxazin-7-yl)-N-(3-fluoro-4-(1,5,7-trimethyl-3,7-diazabicyclo[3.3.1]nonan-3-yl)phenyl)pyrimidin-2-amine] is higher in GI50: less than 1000 nM for the first, 1000 to 10000 nM for the second.

Same assay, conditions: Ba/F3 V617F cells, proliferation, level of activity to inhibit JAK2, read-out: IC50 (the source's name)

`CCOC(C)c1ccc(-c2ccnc(Nc3ccc(N4C[C@@H]5C[C@H]4CN5C)c(C)c3)n2)cc1` (stereo partly drawn) [compound 181, 4-(4-(1-ethoxyethyl)phenyl)-N-(3-methyl-4-((1S,4S)-5-methyl-2,5-diazabicyclo[2.2.1]heptan-2-yl)phenyl)pyrimidin-2-amine] and `CCOC(C)c1ccc(-c2ccnc(Nc3ccc(N4C[C@@H]5C[C@H]4CN5C)c(F)c3)n2)cc1` (stereo partly drawn) [compound 182, 4-(4-(1-ethoxyethyl)phenyl)-N-(3-fluoro-4-((1S,4S)-5-methyl-2,5-diazabicyclo[2.2.1]heptan-2-yl)phenyl)pyrimidin-2-amine] fall in the same range of GI50: 1000 to 10000 nM for the first, 1000 to 10000 nM for the second.

`CN(C)c1ccc(-c2ccnc(Nc3ccc(N4C[C@@H]5C[C@H]4CN5C)cc3)n2)cn1` [compound 183, 4-(6-(dimethylamino)pyridin-3-yl)-N-(4-((1S,4S)-5-methyl-2,5-diazabicyclo[2.2.1]heptan-2-yl)phenyl)pyrimidin-2-amine] and `CN1C[C@@H]2C[C@H]1CN2c1ccc(Nc2nccc(-c3ccc(N4CCOCC4)nc3)n2)cc1` [compound 184, 4-(6-(morpholin-4-yl)pyridin-3-yl)-N-(4-((1S,4S)-5-methyl-2,5-diazabicyclo[2.2.1]heptan-2-yl)phenyl)pyrimidin-2-amine] cannot be ordered by GI50: less than 1000 nM for the first, less than 1000 nM for the second.

`CN1CCOc2cc(-c3ccnc(Nc4ccc(N5C[C@@H]6C[C@H]5CN6C)cc4)n3)cnc21` [compound 185, 4-(4-methyl-3,4-dihydro-2H-pyrido[3,2-b][1,4]oxazin-7-yl)-N-(4-((1S,4S)-5-methyl-2,5-diazabicyclo[2.2.1]heptan-2-yl)phenyl)pyrimidin-2-amine] and `CCOCCCNc1ccc(-c2ccnc(Nc3ccc(N4C[C@@H]5C[C@H]4CN5C)c(C)c3)n2)cn1` [compound 186, 4-(6-(3-ethoxypropyl)aminopyridin-3-yl)-N-(3-methyl-4-((1S,4S)-5-methyl-2,5-diazabicyclo[2.2.1]heptan-2-yl)phenyl)pyrimidin-2-amine] cannot be ordered by GI50: less than 1000 nM for the first, less than 1000 nM for the second.

Reference: patent US9624229B2, “Pyrimidine-2-amine compounds and their use as inhibitors of JAK kinases” (Rigel Pharmaceuticals, Inc., priority 2008, dated 2017)
